In paper PMC9598656, “In Vitro Activity of Robenidine Analogues NCL259 and NCL265 against Gram-Negative Pathogens” (Antibiotics, 2022):
Converted amounts (≈) assume the structure as drawn.

Legend:
[1] = tested on: Vero (normal adult African green monkey cell line); experiment: In vitro cytotoxicity, WST-1; format: cell-based; settings: Chlorocebus sabaeus, 24 h
From the text: Potential toxicity of NCL259 and NCL265 to mammalian cells relative to the parent compound (NCL812) was examined using Caco-2 (human colorectal adenocarcinoma cell line), HEL 299 (non-cancerous human lung fibroblast cell line), Hep G2 (human hepatocellular carcinoma cell line), MCF-7 (human mammary gland adenocarcinoma cell line), MDBK (normal Madin–Darby bovine kidney cell line) and Vero (normal adult African green monkey cell line), essentially as described previously. Toxicity to the cell lines was performed using serial two-fold dilutions of each compound from 128 to 1 μg/mL in duplicates in flat bottom 96 well tissue culture trays (Sarstedt 83.3924) containing approximately 2 × 10^4 cells per well in antibiotic-free Dulbecco’s Modified Eagle’s Medium (DMEM; Gibco Cat No: 12430; Thermo Fisher Scientific, Scoresby, VIC, Australia) consisting of 10% (v/v) fetal bovine serum at 37 °C, 5% CO2 for 24 h. Duplicate wells containing ampicillin at 128 to 1 μg/mL were used as controls. Thereafter, 10% (v/v) of the WST-1 cell proliferation assay reagent (Cat No: 05015944001; Roche Life Science, North Ryde, NSW, Australia) was added to each well, the trays were further incubated at 37 °C, 5% CO2 for 1 h and absorbance read at A450nm on a Multiskan Ascent 354 Spectrophotometer (Labsystems, Lilydale, VIC, Australia). The inhibitory concentration of each compound was determined as the half maximal inhibitory concentration (IC50) at A450nm.

E. coli ATCC 25922 = settings: cited from earlier work; for reduction in CFU (bactericidal): E. coli ATCC 25922, after 30 min treatment; for reduction of colony forming units: within 20 min at the MIC
K. pneumoniae ATCC 4352 = experiment: Checkerboard assay with PMB; format: cell-based, Klebsiella pneumoniae; settings: for MIC, Combination: NCL259 or NCL265 with PMB; for Combination Effect / FICI: with PMB
Procedure: (§1) MICs of NCL259 or NCL265 in the presence of the efflux pump inhibitor, PAβN were determined using a checkerboard assay. […] Briefly, a two-fold serial dilution of each antimicrobial solution was prepared in its appropriate solvent (e.g., DMSO for robenidine analogues and Milli-Q water for PAβN), and 1 μL of each dilution was added from wells 12 to 3 (12.8–0.25 μg/mL for robenidine analogues, and 32–2 μg/mL for PAβN). Thereafter, 89 μL of LB broth was added to each well followed by the addition of 10 μL of bacterial suspension (1–5 × 10^6 CFU/mL) to each well. In this manner, the final concentration of DMSO in each well was 1%. The plate was subsequently incubated at 37 °C for 24 h. The resazurin assay was used for assessment of drug susceptibility of NCL259 and NCL265 (Supplementary Table S1–S6). The same method was also used to test the MICs of NCL259 or NCL265 in the presence of PMB against a range of Gram-negative reference strains (E. coli ATCC 25922, E. coli ATCC 10763, P. aeruginosa PAO1, P. aeruginosa ATCC 27853, A. baumannii ATCC 12457, A. baumannii ATCC 19606, K. pneumoniae ATCC 4352 and K. pneumoniae ATCC 33495). Stock solutions were prepared prior to use (25.6–0.25 mg/mL for robenidine analogues; 12.8–0.25 mg/mL for PMB). The interaction of two antibiotics was calculated as the fractional inhibitory concentration index (FICI) using the following formula:(1) FICI=MICA in combination/MICA alone+MICB in combination/MICB alone where A is NCL259 or NCL265 and B is PAβN or PMB. According to FICI calculations, the interaction between two compounds were interpreted as follows: synergistic (FICI ≤ 0.5); additive or partially synergistic (0.5 < FICI ≤ 1); indifferent (1 < FICI ≤ 4); and antagonistic (FICI > 4), as described previously. The dose reduction index (DRI) was used to describe the difference between the effective doses of NCL259 or NCL265 in combination with PMB or PAβN in comparison to their individual doses, using the following formula:(2) DRI=MICA alone/MICA in combination
(§2) Evaluation of DRI is important clinically because it can allow the dose of a potentially toxic drug to be lowered in combination with another compound without reducing the drug’s efficacy. A DRI higher than 1 is viewed as beneficial.

K. pneumoniae ATCC 33495 = experiment: Checkerboard assay with PMB; format: cell-based, Klebsiella pneumoniae; settings: for MIC, Combination: NCL259 or NCL265 with PMB; for Combination Effect / FICI: with PMB
Procedure: as §1, §2

[2] = tested on: Wild-type (E. coli BW 25113); experiment: MIC, efflux-pump wild-type; format: cell-based; settings: Escherichia coli, read-out: MIC Values
Procedure: A variety of Gram-negative reference strains (E. coli ATCC 25922, E. coli ATCC 10763, P. aeruginosa PAO1, P. aeruginosa ATCC 27853, A. baumannii ATCC 12457, A. baumannii ATCC 19606, K. pneumoniae ATCC 4352 and K. pneumoniae ATCC 33495) were used for initial screening and combination testing with PMB. The organisms were speciated using biochemical testing and MALDI-TOF mass spectrometry (Bruker, Preston, VIC, Australia). Activity testing of NCL259 and NCL265 was also carried out on 51 extraintestinal clinical E. coli isolates from companion animals, and 83 porcine and bovine enterotoxigenic E. coli (ETEC) isolates from the Australian Centre for Antimicrobial Resistance Ecology collection. E. coli wild-type (BW 25113) and its mutant BW 25113∆AcrB, in which the inner membrane component AcrB of the tripartite multidrug efflux system AcrA/AcrB/TolC has been deleted, were obtained from the bacterial collection held at Health and Biomedical Innovation, Clinical and Health Sciences, The University of South Australia. All isolates were cultured on sheep blood agar (SBA) plates at 37 °C for 18 h before being subcultured into Luria Bertaini (LB) (Oxoid, Scoresby, VIC, Australia) broth and grown to A600nm = 0.5 (equivalent to approx. 1.5 × 10^8 colony-forming units (CFU)/mL).
MICs for NCL259 and NCL265 (serial two-fold dilutions commencing at 256 µg/mL) were determined (in duplicate) in round bottom 96–well microtitre trays (Sarstedt 82.1582.001), using the broth micro-dilution method recommended by the Clinical and Laboratory Standards Institute (CLSI). We have shown previously that robenidine can chelate calcium ions from cation-adjusted Mueller-Hinton broth, which causes the loss of activity of robenidine. Therefore, LB broth was used in this study. […] The MIC for ampicillin against each isolate was determined for each test to serve as an internal quality control. The MICs of isolates were determined by visual reading and using an EnSpire Multimode Plate Reader 2300 at A600nm.

[3] = first of two independent experiments
[4] = second of two independent experiments

SMILES	IC50 [1, 3]	IC50 [1, 4]	reduction in CFU (bactericidal) (E. coli ATCC 25922)	reduction of colony forming units (E. coli ATCC 25922)	MIC, Combination (K. pneumoniae ATCC 4352)	Dose Reduction Index (DRI) PMB:NCL259 (K. pneumoniae ATCC 4352; PMB + NCL259)	Combination Effect (K. pneumoniae ATCC 4352)	FICI (K. pneumoniae ATCC 4352)	MIC, Combination (K. pneumoniae ATCC 33495)	Dose Reduction Index (DRI) PMB:NCL259 (K. pneumoniae ATCC 33495; PMB + NCL259)	Combination Effect (K. pneumoniae ATCC 33495)	FICI (K. pneumoniae ATCC 33495)	MIC [2]	Dose Reduction Index (DRI) PMB:NCL265 (K. pneumoniae ATCC 4352; PMB + NCL265)	Dose Reduction Index (DRI) PMB:NCL265 (K. pneumoniae ATCC 33495; PMB + NCL265)
[H]/N=C(\N)NN=C(CC1CCCCC1)c1ccc(Cl)cc1 [NCL259, (E)-2-(1-(4-chlorophenyl)-2-cyclohexylethylidene)hydrazine-1-carboximidamide]	6 µg/mL (≈ 20.5 µM)	3 µg/mL (≈ 10.2 µM)	> 5 log 10	100%	1 µg/mL	8	Synergism (synergistic, FICI ≤ 0.5)	0.375	1 µg/mL	64	Additivity (additive or partially synergistic, 0.5 < FICI ≤ 1)	0.516	64 µg/mL	–	–
[H]/N=C(\N)NN=C(CCCCCC)c1ccc(Cl)cc1 [NCL265, (E)-2-(1-(4-chlorophenyl)heptylidene)hydrazine-1-carboximidamide]	6 µg/mL (≈ 21.4 µM)	3 µg/mL (≈ 10.7 µM)	> 5 log 10	100%	0.5 µg/mL	–	Synergism (synergistic, FICI ≤ 0.5)	0.5	2 µg/mL	–	Synergism (synergistic, FICI ≤ 0.5)	0.281	16 µg/mL	4:4	32
